Measurements published in patent US9580437B2, “Triazolopyrimidine compounds and uses thereof” (Novartis AG, priority 2014, dated 2017).

How the values were obtained:
[1] = molecular target: wild type PRC2 (wtPRC2) complex (Homo sapiens (Human), UniProt O75530); assay: EED LC-MS assay; type: biochemical; conditions: read-out: (b) IC50 EED LC-MS Qualified
Procedure: A 6 μL solution of 3 μM of the peptide substrate H3K27Me0 (histone H3[21-44]-biotin) in reaction buffer was added to initiate each reaction. […] ELISA (H3K27 Methylation) Assay

EED (1-441)-His protein = EED (1-441)-His protein (Homo sapiens (Human), UniProt O75530); assay: EED-H3K27Me3 peptide competition binding assay by AlphaScreen; conditions: read-out: (a) IC50 EED Alphascreen binding Qualified
Text: EED-H3K27Me3 peptide competition binding assay by AlphaScreen (α-screen)

Chain of EED (1-441)-His protein (O75530 whole entry): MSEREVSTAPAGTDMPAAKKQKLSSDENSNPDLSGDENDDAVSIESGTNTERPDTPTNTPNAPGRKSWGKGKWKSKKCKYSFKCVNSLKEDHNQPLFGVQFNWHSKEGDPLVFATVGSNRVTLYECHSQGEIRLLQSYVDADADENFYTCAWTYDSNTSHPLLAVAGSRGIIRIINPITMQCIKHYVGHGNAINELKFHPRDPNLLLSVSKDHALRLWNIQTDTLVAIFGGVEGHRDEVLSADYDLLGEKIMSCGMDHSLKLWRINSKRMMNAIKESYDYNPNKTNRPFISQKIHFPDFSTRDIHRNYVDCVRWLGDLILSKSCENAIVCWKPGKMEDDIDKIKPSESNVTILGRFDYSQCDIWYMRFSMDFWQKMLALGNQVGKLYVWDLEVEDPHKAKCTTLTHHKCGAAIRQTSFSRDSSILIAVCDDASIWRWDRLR
Chain of wild type PRC2 (wtPRC2) complex (O75530 whole entry): as above
Chain of wild type PRC2 (wtPRC2) complex (Q15910 whole entry partner): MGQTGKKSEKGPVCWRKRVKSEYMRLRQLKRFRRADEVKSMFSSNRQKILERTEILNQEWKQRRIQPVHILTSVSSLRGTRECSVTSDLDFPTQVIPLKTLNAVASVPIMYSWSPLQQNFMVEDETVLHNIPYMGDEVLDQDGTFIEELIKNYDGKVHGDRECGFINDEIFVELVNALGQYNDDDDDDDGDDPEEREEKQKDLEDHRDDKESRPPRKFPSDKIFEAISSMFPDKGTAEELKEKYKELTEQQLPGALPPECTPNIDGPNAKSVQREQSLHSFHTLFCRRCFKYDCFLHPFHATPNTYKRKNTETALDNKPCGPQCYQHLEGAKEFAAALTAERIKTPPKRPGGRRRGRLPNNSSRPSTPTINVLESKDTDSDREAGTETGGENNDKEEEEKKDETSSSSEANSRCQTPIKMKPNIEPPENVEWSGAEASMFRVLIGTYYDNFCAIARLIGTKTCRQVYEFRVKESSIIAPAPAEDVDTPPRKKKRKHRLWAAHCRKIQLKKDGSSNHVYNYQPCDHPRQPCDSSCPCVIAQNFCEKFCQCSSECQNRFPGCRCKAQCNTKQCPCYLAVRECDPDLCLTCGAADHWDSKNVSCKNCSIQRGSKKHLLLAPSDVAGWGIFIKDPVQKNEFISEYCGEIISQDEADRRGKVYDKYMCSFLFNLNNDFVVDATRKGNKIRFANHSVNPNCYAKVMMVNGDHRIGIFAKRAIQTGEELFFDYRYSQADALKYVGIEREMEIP
Chain of wild type PRC2 (wtPRC2) complex (Q15022 whole entry partner): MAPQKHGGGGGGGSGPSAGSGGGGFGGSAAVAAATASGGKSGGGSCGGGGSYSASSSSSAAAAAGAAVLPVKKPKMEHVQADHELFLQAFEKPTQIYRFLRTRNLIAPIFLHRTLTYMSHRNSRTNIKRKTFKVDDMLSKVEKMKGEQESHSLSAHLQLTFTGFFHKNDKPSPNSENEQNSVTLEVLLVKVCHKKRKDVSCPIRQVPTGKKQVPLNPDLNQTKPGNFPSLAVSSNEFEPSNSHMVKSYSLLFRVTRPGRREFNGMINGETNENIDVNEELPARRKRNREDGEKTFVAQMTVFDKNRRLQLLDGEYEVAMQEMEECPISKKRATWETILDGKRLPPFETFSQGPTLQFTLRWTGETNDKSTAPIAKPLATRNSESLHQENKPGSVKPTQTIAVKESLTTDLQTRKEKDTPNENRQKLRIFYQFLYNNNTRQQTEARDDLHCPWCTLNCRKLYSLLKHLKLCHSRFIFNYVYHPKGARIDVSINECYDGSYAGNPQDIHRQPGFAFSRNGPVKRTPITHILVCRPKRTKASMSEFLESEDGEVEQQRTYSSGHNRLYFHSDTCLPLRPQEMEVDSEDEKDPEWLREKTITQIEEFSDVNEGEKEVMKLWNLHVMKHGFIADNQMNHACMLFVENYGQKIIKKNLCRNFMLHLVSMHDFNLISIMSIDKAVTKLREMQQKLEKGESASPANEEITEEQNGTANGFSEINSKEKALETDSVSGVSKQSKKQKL

| IC50 [1] | IC50 (EED (1-441)-His protein) | SMILES |
| --- | --- | --- |
| 29.4 nM | 23.5 nM | O=C1OCCN1c1ccc(-c2cnc(NCc3cccc4c3CCO4)n3cnnc23)cn1 [Example 117, 3-(5-(5-(((2,3-dihydrobenzofuran-4-yl)methyl)amino)-[1,2,4]triazolo[4,3-c]pyrimidin-8-yl)pyridin-2-yl)oxazolidin-2-one] |
| 22.3 nM | 8.7 nM | O=C1CN(Cc2ccc(-c3cnc(NCc4cccc5c4CCO5)n4cnnc34)cn2)CCN1 [Example 133, 4-((5-(5-(((2,3-dihydrobenzofuran-4-yl)methyl)amino)-[1,2,4]triazolo[4,3-c]pyrimidin-8-yl)pyridin-2-yl)methyl)piperazin-2-one] |
| 20.7 nM | 12.3 nM | CS(=O)(=O)c1ccc(-c2cnc(NCc3c(F)ccc4c3CCO4)n3cnnc23)cc1 [Example 37, N-((5-fluoro-2,3-dihydrobenzofuran-4-yl)methyl)-8-(4-(methylsulfonyl)phenyl)-[1,2,4]triazolo[4,3-c]pyrimidin-5-amine] |
| 6.6 nM | 4.5 nM | Cn1nccc1-c1cnc(NCc2c(F)ccc3c2CCO3)n2cnnc12 [Example 169, N-((5-fluoro-2,3-dihydrobenzofuran-4-yl)methyl)-8-(1-methyl-1H-pyrazol-5-yl)-[1,2,4]triazolo[4,3-c]pyrimidin-5-amine] |
| 7.6 nM | 4.7 nM | Cc1cc(-c2cnc(NCc3c(F)ccc4c3CCO4)n3cnnc23)ccn1 [Example 116, N-((5-fluoro-2,3-dihydrobenzofuran-4-yl)methyl)-8-(2-methylpyridin-4-yl)-[1,2,4]triazolo[4,3-c]pyrimidin-5-amine] |
| 15.4 nM | 10 nM | Fc1ccc2c(c1CNc1ncc(-c3cnccc3Cl)c3nncn13)CCO2 [Example 124, 8-(4-chloropyridin-3-yl)-N-((5-fluoro-2,3-dihydrobenzofuran-4-yl)methyl)-[1,2,4]triazolo[4,3-c]pyrimidin-5-amine] |
| 6 nM | 1.7 nM | Cc1nc(S(C)(=O)=O)ccc1-c1cnc(NCc2c(F)ccc3c2CCO3)n2cnnc12 [Example 139, N-((5-fluoro-2,3-dihydrobenzofuran-4-yl)methyl)-8-(2-methyl-6-(methylsulfonyl)pyridin-3-yl)-[1,2,4]triazolo[4,3-c]pyrimidin-5-amine] |
| 16.1 nM | 12.4 nM | Cc1nn(C2CC2)c(C)c1-c1cnc(NCc2c(F)ccc3c2CCO3)n2cnnc12 [Example 179, 8-(1-cyclopropyl-3,5-dimethyl-1H-pyrazol-4-yl)-N-((5-fluoro-2,3-dihydrobenzofuran-4-yl)methyl)-[1,2,4]triazolo[4,3-c]pyrimidin-5-amine] |
| 12.1 nM | 10.7 nM | Cn1cc(-c2cnc(NCc3c(F)ccc4c3CCO4)n3cnnc23)c(C(F)(F)F)n1 [Example 170, N-((5-fluoro-2,3-dihydrobenzofuran-4-yl)methyl)-8-(1-methyl-3-(trifluoromethyl)-1H-pyrazol-4-yl)-[1,2,4]triazolo[4,3-c]pyrimidin-5-amine] |
| 12 nM | 9.6 nM | O=C1CN(c2ccc(-c3cnc(NCc4cccc5c4CCO5)n4cnnc34)cn2)CCN1 [Example 104, 4-(5-(5-(((2,3-dihydrobenzofuran-4-yl)methyl)amino)-[1,2,4]triazolo[4,3-c]pyrimidin-8-yl)pyridin-2-yl)piperazin-2-one] |
| 8.1 nM | 4.8 nM | Cc1cnc(F)cc1-c1cnc(NCc2c(F)ccc3c2CCO3)n2cnnc12 [Example 183, N-((5-fluoro-2,3-dihydrobenzofuran-4-yl)methyl)-8-(2-fluoro-5-methylpyridin-4-yl)-[1,2,4]triazolo[4,3-c]pyrimidin-5-amine] |
| 31.5 nM | 14 nM | FC1(F)CCN(CCc2ccc(-c3cnc(NCc4cccc5c4CCO5)n4cnnc34)cn2)C1 [Example 100, 8-(6-(2-(3,3-difluoropyrrolidin-1-yl)ethyl)pyridin-3-yl)-N-((2,3-dihydrobenzofuran-4-yl)methyl)-[1,2,4]triazolo[4,3-c]pyrimidin-5-amine] |
| 25.6 nM | 15.6 nM | Fc1ccc2c(c1CNc1ncc(-c3ccnc(N4CCOCC4)c3)c3nncn13)CCO2 [Example 120, N-((5-fluoro-2,3-dihydrobenzofuran-4-yl)methyl)-8-(2-morpholinopyridin-4-yl)-[1,2,4]triazolo[4,3-c]pyrimidin-5-amine] |
| 13.1 nM | 6.2 nM | Cc1cncc(-c2cnc(NCc3c(F)ccc4c3CCO4)n3cnnc23)c1 [Example 232, N-((5-fluoro-2,3-dihydrobenzofuran-4-yl)methyl)-8-(5-methylpyridin-3-yl)-[1,2,4]triazolo[4,3-c]pyrimidin-5-amine] |
| 20 nM | 18.3 nM | c1cc(CNc2ncc(-c3ccc(C4CC4)nc3)c3nncn23)c2c(c1)OCC2 [Example 65, 8-(6-cyclopropylpyridin-3-yl)-N-((2,3-dihydrobenzofuran-4-yl)methyl)-[1,2,4]triazolo[4,3-c]pyrimidin-5-amine] |
| 42 nM | 17.1 nM | COc1ncccc1-c1cnc(NCc2c(F)ccc3c2CCO3)n2cnnc12 [Example 141, N-((5-fluoro-2,3-dihydrobenzofuran-4-yl)methyl)-8-(2-methoxypyridin-3-yl)-[1,2,4]triazolo[4,3-c]pyrimidin-5-amine] |
| 7.1 nM | 6.6 nM | Cc1c(-c2cnc(NCc3c(F)ccc4c3CCO4)n3cnnc23)cnn1C [Example 172, 8-(1,5-dimethyl-1H-pyrazol-4-yl)-N-((5-fluoro-2,3-dihydrobenzofuran-4-yl)methyl)-[1,2,4]triazolo[4,3-c]pyrimidin-5-amine] |
| 5.1 nM | 2.4 nM | COc1ccc(-c2cnc(NCc3c(F)ccc4c3CCO4)n3cnnc23)cn1 [Example 142, N-((5-fluoro-2,3-dihydrobenzofuran-4-yl)methyl)-8-(6-methoxypyridin-3-yl)-[1,2,4]triazolo[4,3-c]pyrimidin-5-amine] |
| 23.4 nM | 12.3 nM | Cc1ncccc1-c1cnc(NCc2cccc3c2CCO3)n2cnnc12 [Example 123, N-((2,3-dihydrobenzofuran-4-yl)methyl)-8-(2-methylpyridin-3-yl)-[1,2,4]triazolo[4,3-c]pyrimidin-5-amine] |
| 13.7 nM | 5 nM | Cc1cc(C(=O)N2CCCC2)ncc1-c1cnc(NCc2c(F)ccc3c2CCO3)n2cnnc12 [Example 130, (5-(5-(((5-fluoro-2,3-dihydrobenzofuran-4-yl)methyl)amino)-[1,2,4]triazolo[4,3-c]pyrimidin-8-yl)-4-methylpyridin-2-yl)(pyrrolidin-1-yl)methanone] |
| 13.8 nM | 7.3 nM | [O-][n+]1cccc(-c2cnc(NCc3c(F)ccc4c3CCO4)n3cnnc23)c1 [Example 10, 3-(5-(((5-fluoro-2,3-dihydrobenzofuran-4-yl)methyl)amino)-[1,2,4]triazolo[4,3-c]pyrimidin-8-yl)pyridine 1-oxide] |
| 23.2 nM | 10.2 nM | Cc1cn(-c2cnc(NCc3c(F)ccc4c3CCO4)n3cnnc23)c(C)n1 [Example 236, 8-(2,4-dimethyl-1H-imidazol-1-yl)-N-((5-fluoro-2,3-dihydrobenzofuran-4-yl)methyl)-[1,2,4]triazolo[4,3-c]pyrimidin-5-amine] |
| 17.1 nM | 4.5 nM | Cc1nn(CCO)cc1-c1cnc(NCc2c(F)ccc3c2CCO3)n2cnnc12 [Example 190, 2-(4-(5-(((5-fluoro-2,3-dihydrobenzofuran-4-yl)methyl)amino)-[1,2,4]triazolo[4,3-c]pyrimidin-8-yl)-3-methyl-1H-pyrazol-1-yl)ethanol] |
| 9.2 nM | 6.3 nM | COc1ncc(-c2cnc(NCc3c(F)ccc4c3CCO4)n3cnnc23)c(C)n1 [Example 175, N-((5-fluoro-2,3-dihydrobenzofuran-4-yl)methyl)-8-(2-methoxy-4-methylpyrimidin-5-yl)-[1,2,4]triazolo[4,3-c]pyrimidin-5-amine] |
| 10.3 nM | 5 nM | COCCn1nc(C)c(-c2cnc(NCc3c(F)ccc4c3CCO4)n3cnnc23)c1C [Example 159, N-((5-fluoro-2,3-dihydrobenzofuran-4-yl)methyl)-8-(1-(2-methoxyethyl)-3,5-dimethyl-1H-pyrazol-4-yl)-[1,2,4]triazolo[4,3-c]pyrimidin-5-amine] |
| 26 nM | 8.3 nM | Fc1ccncc1-c1cnc(NCc2cccc3c2CCO3)n2cnnc12 [Example 85, N-((2,3-dihydrobenzofuran-4-yl)methyl)-8-(4-fluoropyridin-3-yl)-[1,2,4]triazolo[4,3-c]pyrimidin-5-amine] |
| 20.6 nM | 12.8 nM | CN(C)S(=O)(=O)c1ccc(-c2cnc(NCc3cccc4c3CCO4)n3cnnc23)cc1 [Example 15, 4-(5-(((2,3-dihydrobenzofuran-4-yl)methyl)amino)-[1,2,4]triazolo[4,3-c]pyrimidin-8-yl)-N,N-dimethylbenzenesulfonamide] |
| 52.3 nM | 21.6 nM | c1cc(CNc2ncc(-c3cncc(N4CCNCC4)c3)c3nncn23)c2c(c1)OCC2 [Example 77, N-((2,3-dihydrobenzofuran-4-yl)methyl)-8-(5-(piperazin-1-yl)pyridin-3-yl)-[1,2,4]triazolo[4,3-c]pyrimidin-5-amine] |
| 30.9 nM | 16.7 nM | Cc1nn(C(C)C)cc1-c1cnc(NCc2cccc3c2CCO3)n2cnnc12 [Example 82, N-((2,3-dihydrobenzofuran-4-yl)methyl)-8-(1-isopropyl-3-methyl-1H-pyrazol-4-yl)-[1,2,4]triazolo[4,3-c]pyrimidin-5-amine] |
| 12.8 nM | 7.8 nM | CC(c1ccc(-c2cnc(NCc3cccc4c3CCO4)n3cnnc23)cc1)N1CCCC1 (stereo not drawn) [Example 14, N-((2,3-dihydrobenzofuran-4-yl)methyl)-8-(4-(1-(pyrrolidin-1-yl)ethyl)phenyl)-[1,2,4]triazolo[4,3-c]pyrimidin-5-amine] |
